# Data from patent US12396942B2, “Seed extract of Annona cherimola” (CLR-Chemisches Laboratorium Dr. Kurt Richter GmbH, priority 2019, dated 2025).
# Columns and labels:
# IL-1β = assay: Capsaicine-induced IL-1β release in co-culture of keratinocytes and human sensory neurons; format: cell-based; details: FIG. 3
# Experimental: (§1) To examine whether an F230 extract prepared as described in Example 1 is able to inhibit IL-1β and IL-8 expression, a co-culture system of keratinocytes and human sensory neurons was used. Human sensory neurons were derived from human induced pluripotent stem cells (hiPS cells). hiPS cells were obtained by transfecting human fibroblasts which were reprogrammed into […]. hiPS cells were plated in 6 wells plates coated by a thin layer of Matrigel® (Corning GmbH, Kaiserslautern, Germany) at a density of 250,000 cells in a medium composed by DMEM-F12 (Pan-Biotech, Aidenbach, Germany) supplemented with 10% Knockout Serum Replacement (Life technologies, Carlsbad, USA), 0.1 μM retinoic acid (Sigma Aldrich, Taufkirchen, Germany), 1% P/S (Pan-Biotech) and a cocktail of inhibitors. The culture was maintained for 6 days at 37° C. and 5% of CO2.
# (§2) After 6 days of differentiation, hiPS cells were plated at a density of 20,000 cells in the differentiation medium using 96-well plates that had been coated with a thin layer of Matrigel®. […] Samples were evaluated by cytometry flux (BD Bioscience) and compared to non-treated controls.
# IL-8 = assay: Capsaicine-induced IL-8 release in co-culture of keratinocytes and human sensory neurons; format: cell-based; details: FIG. 4
# Experimental: as §1, §2
# [1] = co-culture of keratinocytes and human sensory neurons, 1 hour capsaicin stimulation, supernatant
# [2] = co-culture, capsaicine as stimulus, compared to non-treated controls
Compound,inhibition of capsaicine-induced IL-1β release (IL-1β; [1]),inhibition of capsaicine-induced IL-8 release (IL-8; [1]),IL-1β expression on incubation with capsaicine alone (IL-1β; [2]),IL-8 expression on incubation with capsaicine alone (IL-8; [2])
Oc1cc2c(cc1O)CN(C(=S)NCCc1ccc(Cl)cc1)CCC2 [capsazepine],completely abrogates IL-1β release,significantly reduced IL-8 release,–,–
COc1cc(CNC(=O)CCCC/C=C/C(C)C)ccc1O [capsaicine],–,–,strongly induced IL-1β expression,strongly induced IL-8 expression
